Results: patent US7709492B2, “Pyrazolo-[4,3-e]-1,2,4-triazolo-[1,5-c]-pyrimidine adenosine A2a receptor antagonists” (Schering Corporation, priority 2004, dated 2010)

Biological target: T1, Human A2a Adenosine Receptor (Homo sapiens, UniProt P29274)
T1 construct: purchased Receptor Biology, Inc., Beltsville, Md; RB-HA2a
Assay: Human adenosine A2a receptor competition binding assay
Conditions: [3H]-SCH 58261 displacement, human A2a membranes
Description: Human Adenosine A2a and A1 Receptor Competition Binding Assay Protocol
A2a: Human A2a Adenosine Receptor membranes, Catalog #RB-HA2a, Receptor Biology, Inc., Beltsville, Md. Dilute to 17 μg/100 μl in membrane dilution buffer (see below).
Membrane dilution buffer: Dulbecco's Phosphate Buffered Saline (Gibco/BRL)+10 mM MgCl2.
Compound Dilution Buffer: Dulbecco's Phosphate Buffered Saline (Gibco/BRL)+10 mM MgCl2 supplemented with 1.6 mg/ml methyl cellulose and 16% DMSO. Prepared fresh daily.
A2a: [3H]-SCH 58261, custom synthesis, AmershamPharmacia Biotech, Piscataway, N.J. Stock is prepared at 1 nM in membrane dilution buffer. Final assay concentration is 0.5 nM.
A2a: To determine non-specific binding, add 100 nM CGS 15923 (RBI, Natick, Mass.). Working stock is prepared at 400 nM in compound dilution buffer.
Prepare 1 mM stock solutions of compounds in 100% DMSO. Dilute in compound dilution buffer. Test at 10 concentrations ranging from 3 μM to 30 pM. Prepare working solutions at 4× final concentration in compound dilution buffer.
Perform assays in deep well 96 well plates. Total assay volume is 200 μl. Add 50 μl compound dilution buffer (total ligand binding) or 50 μl CGS 15923 working solution (A2a non-specific binding) or 50 μl, NECA working solution (A1 non-specific binding) or 50 μl of drug working solution. Add 50 μl ligand stock ([3H]-SCH 58261 for A2a, [3H]-DPCPX for A1). […]

T1 sequence (P29274 whole entry): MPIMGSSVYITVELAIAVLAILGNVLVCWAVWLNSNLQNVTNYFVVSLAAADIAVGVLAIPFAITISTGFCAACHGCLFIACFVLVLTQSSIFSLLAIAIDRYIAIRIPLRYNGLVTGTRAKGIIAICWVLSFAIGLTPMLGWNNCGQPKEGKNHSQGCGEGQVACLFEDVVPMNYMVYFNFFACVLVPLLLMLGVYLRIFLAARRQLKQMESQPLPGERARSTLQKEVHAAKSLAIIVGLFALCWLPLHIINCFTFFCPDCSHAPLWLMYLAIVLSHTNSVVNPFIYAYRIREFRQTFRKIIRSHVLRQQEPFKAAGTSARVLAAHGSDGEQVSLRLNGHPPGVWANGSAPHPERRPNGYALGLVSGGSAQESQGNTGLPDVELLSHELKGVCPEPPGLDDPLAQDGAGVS

Ki: 0.3 nM
Structure (SMILES): Nc1nc2c(cnn2CCN2CCN(c3cc(-c4ncco4)ccc3F)CC2)c2nc(-c3ccccn3)nn12 [Example 12-31]
